Source: PubChem BioAssay (NCI)
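Compound exposure: 48 hours, 5 concentrations, 96-well plates. GI50 = concentration required for 50% inhibition of growth. TGI marks complete inhibition of growth.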

Columns and labels:
Experiment in all cases: NCI tumour cell line growth inhibition, 48 h
786-0 renal = system: 786-0 renal
A498 renal = system: A498 renal
A549 NSCLC = system: A549 NSCLC
ACHN renal = system: ACHN renal
BT-549 breast = system: BT-549 breast
CAKI-1 renal = system: CAKI-1 renal
CCRF-CEM leukemia = system: CCRF-CEM leukemia
COLO 205 colon = system: COLO 205 colon
DU-145 prostate = system: DU-145 prostate
EKVX NSCLC = system: EKVX NSCLC
HCC-2998 colon = system: HCC-2998 colon
HCT-116 colon = system: HCT-116 colon
HCT-15 colon = system: HCT-15 colon
HL-60(TB) leukemia = system: HL-60(TB) leukemia
HOP-62 NSCLC = system: HOP-62 NSCLC
HOP-92 NSCLC = system: HOP-92 NSCLC
HS 578T breast = system: HS 578T breast
HT29 colon = system: HT29 colon
IGROV1 ovarian = system: IGROV1 ovarian
K-562 leukemia = system: K-562 leukemia
KM12 colon = system: KM12 colon
LOX IMVI melanoma = system: LOX IMVI melanoma
M14 melanoma = system: M14 melanoma
MALME-3M melanoma = system: MALME-3M melanoma
MCF7 breast = system: MCF7 breast
MDA-MB-231 breast = system: MDA-MB-231 breast
MDA-MB-435 = system: MDA-MB-435
MOLT-4 leukemia = system: MOLT-4 leukemia
NCI-H226 lung = system: NCI-H226 lung
NCI-H23 lung = system: NCI-H23 lung
NCI-H460 lung = system: NCI-H460 lung
NCI-H522 lung = system: NCI-H522 lung
NCI/ADR-RES ovarian = system: NCI/ADR-RES ovarian
OVCAR-3 ovarian = system: OVCAR-3 ovarian
OVCAR-4 ovarian = system: OVCAR-4 ovarian
OVCAR-5 ovarian = system: OVCAR-5 ovarian
OVCAR-8 ovarian = system: OVCAR-8 ovarian
PC-3 prostate = system: PC-3 prostate
RPMI-8226 leukemia = system: RPMI-8226 leukemia
RXF 393 renal = system: RXF 393 renal
SF-268 CNS = system: SF-268 CNS
SF-295 CNS = system: SF-295 CNS
SF-539 CNS = system: SF-539 CNS
SK-MEL-2 melanoma = system: SK-MEL-2 melanoma
SK-MEL-28 melanoma = system: SK-MEL-28 melanoma
SK-MEL-5 melanoma = system: SK-MEL-5 melanoma
SK-OV-3 ovarian = system: SK-OV-3 ovarian
SN12C renal = system: SN12C renal
SNB-19 CNS = system: SNB-19 CNS
SNB-75 CNS = system: SNB-75 CNS
SR leukemia = system: SR leukemia
SW-620 colon = system: SW-620 colon
T-47D breast = system: T-47D breast
TK-10 renal = system: TK-10 renal
U251 CNS = system: U251 CNS
UACC-257 melanoma = system: UACC-257 melanoma
UACC-62 melanoma = system: UACC-62 melanoma
UO-31 renal = system: UO-31 renal

C=C(C)[C@@H]1CC[C@]2(C)[C@H](CC=C3[C@@H]4[C@@H](C)[C@H](C)CC[C@]4(C(N)=O)CC[C@]32C)[C@@]1(C)CCC#N
GI50 (786-0 renal): 2.26 µM | TGI (786-0 renal): 5.75 µM | GI50 (A498 renal): 11 µM | TGI (A498 renal): 44.5 µM | GI50 (A549 NSCLC): 3.35 µM | TGI (A549 NSCLC): > 100 µM | GI50 (ACHN renal): 3.37 µM | TGI (ACHN renal): > 100 µM | GI50 (BT-549 breast): 4.4 µM | TGI (BT-549 breast): 18 µM | GI50 (CAKI-1 renal): 3.25 µM | TGI (CAKI-1 renal): > 100 µM | GI50 (CCRF-CEM leukemia): 3.73 µM | TGI (CCRF-CEM leukemia): 45 µM | GI50 (COLO 205 colon): 4.01 µM | TGI (COLO 205 colon): 15.6 µM | GI50 (DU-145 prostate): 4.41 µM | TGI (DU-145 prostate): 26.4 µM | GI50 (EKVX NSCLC): 5.22 µM | TGI (EKVX NSCLC): > 100 µM | GI50 (HCC-2998 colon): 4.8 µM | TGI (HCC-2998 colon): 18.8 µM | GI50 (HCT-116 colon): 15.6 µM | TGI (HCT-116 colon): 29.9 µM | GI50 (HCT-15 colon): 3.44 µM | TGI (HCT-15 colon): > 100 µM | GI50 (HL-60(TB) leukemia): 2.35 µM | TGI (HL-60(TB) leukemia): 6.03 µM | GI50 (HOP-62 NSCLC): 7.71 µM | TGI (HOP-62 NSCLC): > 100 µM | GI50 (HOP-92 NSCLC): 2.57 µM | TGI (HOP-92 NSCLC): 9.05 µM | GI50 (HS 578T breast): 11.6 µM | TGI (HS 578T breast): 88.8 µM | GI50 (HT29 colon): 3.34 µM | TGI (HT29 colon): 21.1 µM | GI50 (IGROV1 ovarian): 5.58 µM | TGI (IGROV1 ovarian): > 100 µM | GI50 (K-562 leukemia): 3.38 µM | TGI (K-562 leukemia): > 100 µM | GI50 (KM12 colon): 3.47 µM | TGI (KM12 colon): 23.2 µM | GI50 (LOX IMVI melanoma): 7.06 µM | TGI (LOX IMVI melanoma): 20.1 µM | GI50 (M14 melanoma): 4.08 µM | TGI (M14 melanoma): 23.6 µM | GI50 (MALME-3M melanoma): 5.69 µM | TGI (MALME-3M melanoma): 27.9 µM | GI50 (MCF7 breast): 3.59 µM | TGI (MCF7 breast): > 100 µM | GI50 (MDA-MB-231 breast): 8.75 µM | TGI (MDA-MB-231 breast): 42.8 µM | GI50 (MDA-MB-435): 4.36 µM | TGI (MDA-MB-435): > 100 µM | GI50 (MOLT-4 leukemia): 2.92 µM | TGI (MOLT-4 leukemia): 21 µM | GI50 (NCI-H226 lung): 5.09 µM | TGI (NCI-H226 lung): 27 µM | GI50 (NCI-H23 lung): 5.72 µM | TGI (NCI-H23 lung): > 100 µM | GI50 (NCI-H460 lung): 8.35 µM | TGI (NCI-H460 lung): 29.6 µM | GI50 (NCI-H522 lung): 3.56 µM | TGI (NCI-H522 lung): 50.9 µM | GI50 (NCI/ADR-RES ovarian): 4 µM | TGI (NCI/ADR-RES ovarian): 17.2 µM | GI50 (OVCAR-3 ovarian): 3.45 µM | TGI (OVCAR-3 ovarian): 10.7 µM | GI50 (OVCAR-4 ovarian): 3.74 µM | TGI (OVCAR-4 ovarian): > 100 µM | GI50 (OVCAR-5 ovarian): 5.75 µM | TGI (OVCAR-5 ovarian): > 100 µM | GI50 (OVCAR-8 ovarian): 5.38 µM | TGI (OVCAR-8 ovarian): 27.5 µM | GI50 (PC-3 prostate): 2.58 µM | TGI (PC-3 prostate): 21 µM | GI50 (RPMI-8226 leukemia): 2.18 µM | TGI (RPMI-8226 leukemia): 6.27 µM | GI50 (RXF 393 renal): 3.33 µM | TGI (RXF 393 renal): 11.4 µM | GI50 (SF-268 CNS): 4.52 µM | TGI (SF-268 CNS): > 100 µM | GI50 (SF-295 CNS): 4.44 µM | TGI (SF-295 CNS): > 100 µM | GI50 (SF-539 CNS): 4.79 µM | TGI (SF-539 CNS): 16.6 µM | GI50 (SK-MEL-2 melanoma): 6.98 µM | TGI (SK-MEL-2 melanoma): 23.2 µM | GI50 (SK-MEL-28 melanoma): 7.57 µM | TGI (SK-MEL-28 melanoma): 22.7 µM | GI50 (SK-MEL-5 melanoma): 2.71 µM | TGI (SK-MEL-5 melanoma): 8.16 µM | GI50 (SK-OV-3 ovarian): 7.31 µM | TGI (SK-OV-3 ovarian): > 100 µM | GI50 (SN12C renal): 3.36 µM | TGI (SN12C renal): 10.7 µM | GI50 (SNB-19 CNS): 6.31 µM | TGI (SNB-19 CNS): > 100 µM | GI50 (SNB-75 CNS): 3.57 µM | TGI (SNB-75 CNS): > 100 µM | GI50 (SR leukemia): 2.58 µM | TGI (SR leukemia): 9.48 µM | GI50 (SW-620 colon): 4.5 µM | TGI (SW-620 colon): > 100 µM | GI50 (T-47D breast): 2.85 µM | TGI (T-47D breast): > 100 µM | GI50 (TK-10 renal): 8.41 µM | TGI (TK-10 renal): 91.5 µM | GI50 (U251 CNS): 4.32 µM | TGI (U251 CNS): 18.3 µM | GI50 (UACC-257 melanoma): 5.39 µM | TGI (UACC-257 melanoma): 76.5 µM | GI50 (UACC-62 melanoma): 5.69 µM | TGI (UACC-62 melanoma): 29 µM | GI50 (UO-31 renal): 3.46 µM | TGI (UO-31 renal): 26.1 µM
